Results as given in article PMC4822341 (Cell Discovery, 2015).

Key:
[1] = target: T1, GR (Homo sapiens, UniProt P04150); test: MMTV-Luc induction reporter assay in AD293 cells; format: cell-based; conditions: 16 h
T1 construct: expressed in transfected cells; host or cells: AD293
T1 sequence (P04150 1-777): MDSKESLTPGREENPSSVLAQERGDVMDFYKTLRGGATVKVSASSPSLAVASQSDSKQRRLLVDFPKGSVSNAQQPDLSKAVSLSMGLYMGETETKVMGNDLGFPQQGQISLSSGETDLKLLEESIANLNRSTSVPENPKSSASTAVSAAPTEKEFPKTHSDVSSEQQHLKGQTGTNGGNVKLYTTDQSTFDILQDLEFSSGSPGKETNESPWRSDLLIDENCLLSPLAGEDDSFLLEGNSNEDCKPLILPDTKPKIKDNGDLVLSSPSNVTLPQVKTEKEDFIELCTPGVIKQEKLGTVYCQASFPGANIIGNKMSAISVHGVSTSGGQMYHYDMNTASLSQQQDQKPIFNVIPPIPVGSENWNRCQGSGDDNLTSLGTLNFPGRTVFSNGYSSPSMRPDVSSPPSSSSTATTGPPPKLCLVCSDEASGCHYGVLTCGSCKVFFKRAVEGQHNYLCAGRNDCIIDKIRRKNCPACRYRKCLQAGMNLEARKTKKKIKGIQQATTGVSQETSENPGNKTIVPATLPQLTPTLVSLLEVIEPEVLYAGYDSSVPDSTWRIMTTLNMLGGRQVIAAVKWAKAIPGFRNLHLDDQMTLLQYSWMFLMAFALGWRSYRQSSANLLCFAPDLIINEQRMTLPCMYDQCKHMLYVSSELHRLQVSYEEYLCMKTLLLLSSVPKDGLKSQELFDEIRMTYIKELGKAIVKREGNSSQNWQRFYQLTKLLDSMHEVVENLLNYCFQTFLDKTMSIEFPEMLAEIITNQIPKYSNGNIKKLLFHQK
Procedure: (§1) Similar to previous reports, for induction 100 ng pHHLuc (MMTV-Luc) plasmid, 0.1 ng pRShGR together with 5 ng phRGtkRenilla were transfected by X-tremeGENE 9 (Roche) into AD293 cells per well in 24-well plate. For transrepression, 10 ng AP-1-Luc or 10ng pNF-κB-luc, 100 ng pRShGR and 5 ng phRGtkRenilla were transfected into AD293 cells per well. We used the same transfection protocol for the MR and PR assays, except of the use of 0.1 ng MR or PR plasmid to substitute GR. One day after transfection, for induction, cells were directly treated by steroids for 16 h; for repression, cells were treated with either PMA at 0.6 ng ml^–1 (for AP-1 reporter) or TNFα at 2 ng ml^–1 (for NF-κB reporter), together with various steroids. Cells were collected by addition of 1× Passive Lysis Buffer (Promega, Madison, WI, USA), and luciferase activity was assayed by the Dual-Glo Luciferase system (Promega). Data were plotted as firefly luciferase activity normalized to Renilla luciferase activity in Relative Luciferase Units.

[2] = target: T1, GR; test: AP-1-Luc repression reporter assay in AD293 cells; format: cell-based; conditions: AP-1 reporter, PMA 0.6 ng ml^-1
Procedure: as §1

[3] = Spleen size and weight (spleen atrophy); format: in vivo, DBA/1 mice; conditions: 2 weeks
Procedure: Figure 5 Examination of side effects of VSGC12 and FF at the effective dose. (a) Body weight of DBA/1 mice treated with the indicated daily dose of steroids for 2 weeks. Mice body weight was measured at day 0, 7 and 14. (b) Insulin-tolerance test of mice treated with the indicated daily doses of steroids for 7 days. Glucose level was measured at day 7 at various time points before and after insulin injection. Data were plotted as percent of the glucose level of time 0. (c) Plasma insulin levels of mice treated with the indicated daily doses of steroid for 7 days. (d) Spleen size and weight for mice treated with the indicated daily doses of steroid for 2 weeks. (e) Cortical bone thickness of femurs of mice treated with the indicated daily doses of steroid for 2 weeks. (f) Bone stiffness of femurs of mice treated with the indicated daily doses of steroid for 2 weeks. Mouse strain: DBA/1. Each treatment n=5, error bars indicate s.e.m., *P<0.05; **P<0.01; ***P<0.001.

[4] = Bone density (μCT) and biomechanics testing of femurs; format: in vivo, DBA/1 mice; conditions: 2 weeks; for cortical bone thickness of femurs: μCT
Procedure: Femur bones were collected and scanned by μCT (Skyscan 1172 uCT) for quantification of trabecular and cortical bone parameters. The thresholds for μCT quantification of trabecular and cortical bone parameters were set at 80–100 and 100–110, respectively. μCT analyses of cortical bone parameters were performed on 100-μCT slices (1 mm total) from the middle shaft of femurs; trabecular parameters were assessed in 100-μCT slices (1 mm total) immediately below the distal growth plate of the femur. Following uCT scans, the femurs were individually tested on a TestResources 570 Force Transducer. Bones were thawed in PBS before being tested, to ensure no brittleness was due to freezing. […] Data points were collected at a frequency of 50 Hz and a deflection rate of 0.005 mm s^–1.

CON(C)C(=O)C1(OC(=O)c2ccco2)C(C)CC2C3CC(F)C4=Cc5c(cnn5-c5ccccc5)CC4(C)C3(F)C(O)CC21C (centres unmarked) [VSGC12]
EC50 [1]: 0.51 nM | IC50 [2]: 0.02 nM | atrophy of the spleen ([3]; 0.0625 mg kg^-1 daily): only a mild change in spleen size | atrophy of the spleen ([3]; 0.25 mg kg^-1 daily): less severe atrophy | bone strength (stiffness) of femurs ([4]; 0.0625 mg kg^-1 daily): no longer caused damage to bone strength | cortical bone thickness of femurs ([4]; 0.0625 mg kg^-1 daily): did not cause a significant decrease compared with vehicle treatment | bone strength (stiffness) of femurs ([4]; 0.25 mg kg^-1 daily): no longer caused damage to bone strength | cortical bone thickness of femurs ([4]; 0.25 mg kg^-1 daily): only caused a mild decrease
